Two compounds from ChEMBL document CHEMBL5042504 (J Med Chem, 2022) can be followed below.

Active and inactive are the calls of the source. The rule behind the calls is not given here.

Data set [1] addresses T1, Histone deacetylase 7 (Homo sapiens, UniProt Q8WUI4).
T1 sequence (Q8WUI4 whole entry): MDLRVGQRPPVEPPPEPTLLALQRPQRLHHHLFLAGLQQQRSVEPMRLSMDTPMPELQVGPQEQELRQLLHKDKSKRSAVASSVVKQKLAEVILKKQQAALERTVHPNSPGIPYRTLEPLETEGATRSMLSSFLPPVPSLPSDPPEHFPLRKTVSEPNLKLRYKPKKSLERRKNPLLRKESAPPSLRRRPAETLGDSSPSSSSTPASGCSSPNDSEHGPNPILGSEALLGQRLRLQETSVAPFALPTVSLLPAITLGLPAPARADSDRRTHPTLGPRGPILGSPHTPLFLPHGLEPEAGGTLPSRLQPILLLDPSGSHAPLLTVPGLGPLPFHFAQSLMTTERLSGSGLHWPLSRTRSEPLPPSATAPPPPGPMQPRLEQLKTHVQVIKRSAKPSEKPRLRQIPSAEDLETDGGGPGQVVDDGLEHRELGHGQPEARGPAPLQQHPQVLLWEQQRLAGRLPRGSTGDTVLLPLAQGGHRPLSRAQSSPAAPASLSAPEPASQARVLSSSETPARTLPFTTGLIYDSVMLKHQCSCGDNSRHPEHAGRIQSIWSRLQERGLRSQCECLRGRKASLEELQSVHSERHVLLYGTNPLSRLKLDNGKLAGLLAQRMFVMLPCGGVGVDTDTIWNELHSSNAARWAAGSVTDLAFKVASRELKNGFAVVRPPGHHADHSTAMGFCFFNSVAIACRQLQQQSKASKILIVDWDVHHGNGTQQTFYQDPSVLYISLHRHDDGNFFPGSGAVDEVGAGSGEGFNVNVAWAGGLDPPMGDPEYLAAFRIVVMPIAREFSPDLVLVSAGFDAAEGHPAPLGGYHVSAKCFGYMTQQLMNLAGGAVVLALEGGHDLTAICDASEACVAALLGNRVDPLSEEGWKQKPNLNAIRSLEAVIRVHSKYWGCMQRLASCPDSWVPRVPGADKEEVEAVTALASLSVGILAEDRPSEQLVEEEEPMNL
The data set can be described thus: Inhibition of human recombinant HDAC7 using Boc-Lys(triflouroacetyI)-AMC substrate incubated for 2 hrs by fluorescence based assay.

The target in data set [2] is T2, Histone deacetylase 11 (Homo sapiens, UniProt Q96DB2).
T2 sequence (Q96DB2 whole entry): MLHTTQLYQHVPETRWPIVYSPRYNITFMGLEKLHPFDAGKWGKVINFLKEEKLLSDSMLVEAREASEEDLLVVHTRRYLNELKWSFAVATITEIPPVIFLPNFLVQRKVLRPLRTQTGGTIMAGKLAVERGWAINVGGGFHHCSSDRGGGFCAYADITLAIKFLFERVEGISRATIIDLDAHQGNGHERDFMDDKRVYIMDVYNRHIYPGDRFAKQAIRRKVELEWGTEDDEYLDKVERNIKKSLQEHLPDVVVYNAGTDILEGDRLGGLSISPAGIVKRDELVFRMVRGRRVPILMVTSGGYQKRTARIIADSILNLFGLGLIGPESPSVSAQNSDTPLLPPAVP
The data set can be described thus: Inhibition of human recombinant HDAC11 using Boc-Lys(triflouroacetyI)-AMC substrate incubated for 2 hrs by fluorescence based assay.

The subject of data set [3] is MV4-11. The data set can be described thus: cells. The note with it: Homo sapiens, MV4-11, 48 h.
Description: Antiproliferative activity against human MV4-11 AML cells assessed as cell viability measured after 48 hrs by multiplate reader method
In data set [4] the target is T3, Histone deacetylase 1 (Homo sapiens, UniProt Q13547). Briefly: Inhibition of human recombinant HDAC1 using Boc-Lys(acetyl)-AMC substrate incubated for 2 hrs by fluorescence based assay.
The target of data set [5] is Histone deacetylase 2 (Homo sapiens, UniProt Q92769). Briefly: Inhibition of human recombinant HDAC2 using Boc-Lys(acetyl)-AMC substrate incubated for 2 hrs by fluorescence based assay.
The nature of data set [6]: Oral bioavailability in CD-1 mouse at 20 mg/kg measured upto 24 hrs. The note with it: in vivo. The class given is ADME, organism-based.
Data set [7] deals with MV4-11. The data set can be described thus: Down regulation of p21 expression in human MV4-11 cells at 200 nM measured after 24 hrs by Western blot analysis. The class given is functional, cell-based.
The subject of data set [8] is HL-60. Briefly: Induction of apoptosis in human p53 null HL-60 cells assessed as […] at 200 nM measured after 24 hrs by FITC Annexin V/propidium iodide staining based flow cytometry (reference value: 20.55%). The class given is functional. Conditions: read-out: Activity.
Data set [9] concerns MV4-11. Briefly: Cell cycle arrest in human […] MV4-11 cells assessed as accumulation at G2/M-phase at 500 nM measured after 24 hrs realtive to control. Type of data set: functional, cell-based.
Data set [10] is described as follows: Antitumor activity against human MV4-11 cells xenografted in BALB/c mouse assessed as tumor growth inhibition at 2 to 4 mg/kg, po administered for 24 days. Type of data set: functional. The note with it: dose 2-4 mg/kg, time 24 day.
A short description of data set [11]: Drug uptake in BALB/c mouse xenografted with human AML MV4-11 cells assessed as tumor tissue at 4mg/kg, po measured after 0.5 to 6 hrs by LC-MS/MS. The class given is ADME, organism-based. The note with it: in vivo, time 0.5-6 hrs.
A short description of data set [12]: Plasma concentration in BALB/c mouse xenografted with human AML MV4-11 cells at 4 mg/kg, po. Type of data set: ADME, organism-based. The note with it: in vivo.
For data set [13], the target named is T3, Histone deacetylase 1. Briefly: Mixed type inhibition of human HDAC1 (unknown origin) by Lineweaver-Burk plot analysis.
Data set [14] relates to MV4-11. Briefly: Antitumor activity against human MV4-11 cells xenografted in balb/c mouse assessed as accumulation of AcHH4 protein level at 4 mg/kg, po measured after 8 hrs. The class given is functional, organism-based.
Data set [15] has as its system MV4-11. The data set can be described thus: Antitumor activity against human MV4-11 cells xenografted in balb/c mouse assessed as accumulation of AcHH3 protein level at 4 mg/kg, po measured after 8 hrs. The class given is functional, organism-based.
Data set [16] can be described thus: Drug distribution in BALB/c mouse brain measured at 4 mg/kg, po or ip after 0.5 hrs after 0.5 hrs. The class given is ADME, organism-based. Conditions: in vivo.
Data set [17] is described as follows: Drug distribution in BALB/c mouse gut measured at 4 mg/kg, po or ip after 2 to 8 hrs after 0.5 hrs. Type of data set: ADME, organism-based. The note with it: in vivo, time 2-8 hrs.
Data set [18] in a line: Drug distribution in BALB/c mouse brain measured at 4 mg/kg, po or ip after 2 to 8 hrs after 0.5 hrs. Type of data set: ADME, organism-based. Conditions: in vivo, time 2-8 hrs.
A short description of data set [19]: Drug distribution in BALB/c mouse lung measured at 4 mg/kg, po or ip after 2 to 8 hrs after 0.5 hrs. Type of data set: ADME, organism-based. The note with it: in vivo, time 2-8 hrs.
Data set [20] in a line: Toxicity in BALB/c mouse xenografted with MV4-11 cells assessed as body weight loss.
Data set [21] in a line: Toxicity in BALB/c mouse assessed as induction of pathological changes in liver by H and E staining based analysis. The class given is tissue-based. The note with it: in vivo.
A short description of data set [22]: Toxicity in BALB/c mouse assessed as induction of pathological changes in lung by H and E staining based analysis. The class given is tissue-based. The note with it: in vivo.
Data set [23] is described as follows: Drug distribution in tumor of BALB/c mouse xenografted with human MV4-11 cells assessed as measured after 0.5 hrs. Conditions: read-out: Ct. Type of data set: ADME.
Data set [24] in a line: Drug distribution in tumor of BALB/c mouse xenografted with human MV4-11 cells assessed as measured after 2 hrs. Type of data set: ADME. Conditions: read-out: Ct.
Data set [25] is described as follows: Drug distribution in tumor of BALB/c mouse xenografted with human MV4-11 cells assessed as measured after 8 hrs. The class given is ADME. The note with it: read-out: Drug uptake.

T3 sequence (Q13547 whole entry): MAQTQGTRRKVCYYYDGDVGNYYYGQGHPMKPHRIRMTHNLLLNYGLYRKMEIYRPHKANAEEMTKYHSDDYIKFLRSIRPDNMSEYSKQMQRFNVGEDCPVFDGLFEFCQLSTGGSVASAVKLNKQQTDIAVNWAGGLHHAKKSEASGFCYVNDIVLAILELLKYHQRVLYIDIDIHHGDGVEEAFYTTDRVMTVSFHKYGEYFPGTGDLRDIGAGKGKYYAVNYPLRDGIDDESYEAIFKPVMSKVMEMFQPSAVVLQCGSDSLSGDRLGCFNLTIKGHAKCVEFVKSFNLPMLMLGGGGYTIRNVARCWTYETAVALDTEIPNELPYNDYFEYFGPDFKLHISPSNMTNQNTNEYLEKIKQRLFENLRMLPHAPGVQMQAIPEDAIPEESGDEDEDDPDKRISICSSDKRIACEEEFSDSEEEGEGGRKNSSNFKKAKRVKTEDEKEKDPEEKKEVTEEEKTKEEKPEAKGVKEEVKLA
Histone deacetylase 2, sequence (Q92769 whole entry): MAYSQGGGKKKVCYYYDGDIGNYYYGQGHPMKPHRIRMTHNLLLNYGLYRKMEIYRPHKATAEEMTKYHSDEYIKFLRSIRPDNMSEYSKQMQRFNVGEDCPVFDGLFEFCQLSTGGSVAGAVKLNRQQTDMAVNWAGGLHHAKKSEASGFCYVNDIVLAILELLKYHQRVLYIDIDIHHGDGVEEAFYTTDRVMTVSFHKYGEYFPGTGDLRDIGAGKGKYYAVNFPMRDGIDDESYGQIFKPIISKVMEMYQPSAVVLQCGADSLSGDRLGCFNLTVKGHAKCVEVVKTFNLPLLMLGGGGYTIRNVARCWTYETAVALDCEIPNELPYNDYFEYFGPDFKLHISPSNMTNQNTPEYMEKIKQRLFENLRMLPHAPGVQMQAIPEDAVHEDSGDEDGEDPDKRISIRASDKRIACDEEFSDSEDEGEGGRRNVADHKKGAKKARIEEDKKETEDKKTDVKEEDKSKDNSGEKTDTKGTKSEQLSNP

`CCCNNC(=O)c1ccc(CNC(=O)/C=C/c2ccccc2)cc1`: the IC50 is > 5 µM in data set [1], > 5 µM in data set [2] and 0.0364 µM in data set [3].
In the case of `CCCNNC(=O)c1ccc(CNC(=O)c2cc3ccccc3[nH]2)cc1`, the IC50 was 0.00301 µM in data set [4]; 0.0185 µM in data set [5]; > 5 µM in data set [1]; > 5 µM in data set [2]; 0.0015 µM in data set [13]. For the same compound, the F in [6] came to 112%. The outcome in data set [7], in data set [9], in data set [14] and in data set [15] was Active. The viability at 0.2 µM in [8] amounted to 32.6%. Besides, the TGI in [10] amounted to 78.9%. The Drug uptake result in data set [11], in data set [12], in data set [16], in [17], in [18] and in [19] was “Active” each time. In addition, the Activity entry in data set [20], in data set [21] and in data set [22] was “Non-Toxic” each time. Besides, the concentration at 0.5 h in data set [23] came to 1130 ng/g. For the same compound, the concentration at 2 h in data set [24] stood at 882 ng/g. For the same compound, the concentration at 8 h in data set [25] was 151 ng/g.
